US9850283B2, “Macrocyclic inhibitors of the PD-1/PD-L1 and CD80(B7-1)/PD-L1 protein/protein interactions” (BRISTOL-MYERS SQUIBB COMPANY, priority 2013, dated 2017)
Positions of bridges follow the written chain, without caps; N, C: chain ends. Non-standard residues stand in square brackets, D forms with d. Residues, ends and D or L forms follow the SMILES beside them. ξ: configuration not given here. Pro(3S-OH) = O=C(O)[C@H]1NCC[C@@H]1O; Bta = N[C@@H](Cc1csc2ccccc12)C(=O)O; ξPro(4R-OH) = O=C(O)C1C[C@@H](O)CN1; Hyp = O=C(O)[C@@H]1C[C@@H](O)CN1; dNMeNle = CCCC[C@@H](NC)C(=O)O; NMeNle = CCCC[C@H](NC)C(=O)O; NMeA = CN[C@@H](C)C(=O)O; Orn = NCCC[C@H](N)C(=O)O; dDap = NC[C@@H](N)C(=O)O; Dab = NCC[C@H](N)C(=O)O; Dap = NC[C@H](N)C(=O)O; ξPip = O=C(O)C1CCCCN1; ξP = O=C(O)C1CCCN1

How the values were obtained:
[1] = molecular target: T1, LK35.2-hPD-L1 cells / PE-labeled PD-1-Ig (Homo sapiens, UniProt Q9NZQ7); assay: LK35.2-hPD-L1 cell binding high-content screening assay; type: cell-based; details: cluster symbol; cell line of CBA not given (LK35.2-hPD-L1 or 293T-hPD-L1); read-out: CBA IC50 cluster
T1 construct: expressed in transfected cells; host or cells: LK35.2 mouse B cell line
Method in brief: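 Binding of PE-conjugated human PD-1-Ig (1 nM final) to human PD-L1 stably expressed on a mouse B-cell line (LK35.2) was measured by high-content imaging after washes. Compound and labeled PD-1-Ig were co-incubated 1 h at 37 °C with cells in RPMI/10% FCS.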

Human PD-L1/PD-1 = molecular target: T2, Human PD-L1/PD-1 (Homo sapiens, UniProt Q9NZQ7); assay: HTRF PD-1-Ig/PD-L1-His binding assay (human PD-L1); details: cluster symbol; read-out: HTRF IC50 cluster
T2 construct: made in house; host or cells: HEK293T
Method in brief: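 Soluble Fc-fused PD-1 and His-tagged PD-L1 (truncated before the transmembrane region) were combined in dPBS with 0.1% (w/v) BSA and 0.05% (v/v) Tween-20. Binding was read by HTRF using europium cryptate anti-Ig antibody (1 nM final) and APC anti-His antibody (20 nM final).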

T2 sequence (Q9NZQ7 with tags, fused parts or gaps): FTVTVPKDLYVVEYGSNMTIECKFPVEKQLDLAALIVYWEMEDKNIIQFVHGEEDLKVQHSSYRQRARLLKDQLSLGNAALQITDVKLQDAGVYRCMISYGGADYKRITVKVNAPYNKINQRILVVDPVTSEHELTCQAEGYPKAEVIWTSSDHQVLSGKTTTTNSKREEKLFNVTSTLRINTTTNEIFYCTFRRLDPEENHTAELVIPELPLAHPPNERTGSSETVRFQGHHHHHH
T1 sequence (Q9NZQ7 19-290): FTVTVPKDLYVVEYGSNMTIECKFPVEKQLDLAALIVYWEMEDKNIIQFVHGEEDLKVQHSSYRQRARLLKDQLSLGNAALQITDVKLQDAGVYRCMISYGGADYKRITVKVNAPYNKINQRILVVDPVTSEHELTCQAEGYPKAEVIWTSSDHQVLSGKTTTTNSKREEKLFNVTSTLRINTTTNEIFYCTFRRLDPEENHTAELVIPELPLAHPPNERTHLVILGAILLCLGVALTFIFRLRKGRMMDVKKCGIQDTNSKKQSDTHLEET

SMILES	IC50 [1]	IC50 (Human PD-L1/PD-1)
CCCC[C@@H]1C(=O)N(C)[C@H](CCCC)C(=O)N[C@@H](CN)C(=O)N[C@@H](C(=O)NCC(N)=O)CSCC(=O)N[C@@H](Cc2ccc(O)cc2)C(=O)N2CCCC2C(=O)N[C@H](CC(=O)O)C(=O)N2CCC[C@H]2C(=O)N[C@H](CN)C(=O)N[C@@H](CCC(N)=O)C(=O)N2CCCC2C(=O)N[C@H](Cc2c[nH]c3ccccc23)C(=O)N[C@@H](CCN)C(=O)N[C@@H](Cc2c[nH]c3ccccc23)C(=O)N1C (stereo partly drawn) [Example 1213] ({CH2CO}-Y[ξP][dD]P[dDap]Q[ξP][dW][Dab]W[dNMeNle][dNMeNle][Dap][dC]G-NH2; thioether N-14)	4.78 to 72.9 nM	6.76 to 30.3 nM
CCCC[C@@H]1C(=O)N(C)[C@H](CCCC)C(=O)N[C@@H](CCCN)C(=O)N[C@@H](C(=O)NCC(N)=O)CSCC(=O)N[C@@H](Cc2ccc(O)cc2)C(=O)N2CCCC2C(=O)N[C@H](CC(=O)O)C(=O)N2CCC[C@H]2C(=O)N[C@H](CN)C(=O)N[C@@H](CCC(=O)O)C(=O)N2CCCC2C(=O)N[C@H](Cc2c[nH]c3ccccc23)C(=O)N[C@@H](CCN)C(=O)N[C@@H](Cc2c[nH]c3ccccc23)C(=O)N1C (stereo partly drawn) [Example 1214] ({CH2CO}-Y[ξP][dD]P[dDap]E[ξP][dW][Dab]W[dNMeNle][dNMeNle][Orn][dC]G-NH2; thioether N-14)	4.78 to 72.9 nM	6.76 to 30.3 nM
CCCC[C@@H]1C(=O)N(C)[C@H](CCCC)C(=O)N[C@@H](CCCN)C(=O)N[C@@H](C(=O)NCC(N)=O)CSCC(=O)N[C@@H](Cc2ccc(O)cc2)C(=O)N2CCCC2C(=O)N[C@H](CC(=O)O)C(=O)N2CCC[C@H]2C(=O)N[C@H](Cc2c[nH]cn2)C(=O)N[C@@H](CCC(=O)O)C(=O)N2CCCC2C(=O)N[C@H](Cc2c[nH]c3ccccc23)C(=O)N[C@@H](CCN)C(=O)N[C@@H](Cc2c[nH]c3ccccc23)C(=O)N1C (stereo partly drawn) [Example 1216] ({CH2CO}-Y[ξP][dD]P[dH]E[ξP][dW][Dab]W[dNMeNle][dNMeNle][Orn][dC]G-NH2; thioether N-14)	> 74.3 nM	6.76 to 30.3 nM
CCCC[C@@H]1C(=O)N(C)[C@H](CCCC)C(=O)N[C@@H](CCCNC(=N)N)C(=O)N[C@@H](C(=O)NCC(N)=O)CSCC(=O)N[C@@H](Cc2ccc(O)cc2)C(=O)N2CCCCC2C(=O)N[C@H](CCC(=O)O)C(=O)N2CCC[C@H]2C(=O)N[C@H](Cc2c[nH]cn2)C(=O)N[C@@H](CCCN)C(=O)N2C[C@H](O)CC2C(=O)N[C@H](Cc2c[nH]c3ccccc23)C(=O)N[C@@H](CO)C(=O)N[C@@H](Cc2c[nH]c3ccccc23)C(=O)N1C (stereo partly drawn) [Example 1217] ({CH2CO}-Y[ξPip][dE]P[dH][Orn][ξPro(4R-OH)][dW]SW[dNMeNle][dNMeNle]R[dC]G-NH2; thioether N-14)	4.78 to 72.9 nM	6.76 to 30.3 nM
CCCC[C@@H]1C(=O)N(C)[C@H](CCCC)C(=O)N[C@@H](CCCNC(=N)N)C(=O)N[C@@H](C(=O)NCC(N)=O)CSCC(=O)N[C@@H](Cc2ccc(O)cc2)C(=O)N2CCCCC2C(=O)N[C@H](CC(=O)O)C(=O)N2CCC[C@H]2C(=O)N[C@H](Cc2c[nH]cn2)C(=O)N[C@@H](CCCN)C(=O)N2C[C@H](O)CC2C(=O)N[C@H](Cc2c[nH]c3ccccc23)C(=O)N[C@@H](CO)C(=O)N[C@@H](Cc2c[nH]c3ccccc23)C(=O)N1C (stereo partly drawn) [Example 1218] ({CH2CO}-Y[ξPip][dD]P[dH][Orn][ξPro(4R-OH)][dW]SW[dNMeNle][dNMeNle]R[dC]G-NH2; thioether N-14)	4.78 to 72.9 nM	6.76 to 30.3 nM
CCCC[C@@H]1C(=O)N(C)[C@H](CCCC)C(=O)N[C@@H](CCCN)C(=O)N[C@@H](C(=O)NCC(N)=O)CSCC(=O)N[C@@H](Cc2ccc(O)cc2)C(=O)N2CCCCC2C(=O)N[C@H](CC(=O)O)C(=O)N2CCC[C@H]2C(=O)N[C@H](Cc2c[nH]cn2)C(=O)N[C@@H](CCC(=O)O)C(=O)N2C[C@H](O)CC2C(=O)N[C@H](Cc2c[nH]c3ccccc23)C(=O)N[C@@H](CO)C(=O)N[C@@H](Cc2c[nH]c3ccccc23)C(=O)N1C (stereo partly drawn) [Example 1219] ({CH2CO}-Y[ξPip][dD]P[dH]E[ξPro(4R-OH)][dW]SW[dNMeNle][dNMeNle][Orn][dC]G-NH2; thioether N-14)	0.158 to 4.71 nM	6.76 to 30.3 nM
CCCC[C@@H]1C(=O)N(C)[C@H](CCCC)C(=O)N[C@@H](CCCN)C(=O)N[C@@H](C(=O)NCC(N)=O)CSCC(=O)N[C@@H](Cc2ccc(O)cc2)C(=O)N2CCNCC2C(=O)N[C@H](CC(N)=O)C(=O)N2CCC[C@H]2C(=O)N[C@H](Cc2c[nH]cn2)C(=O)N[C@@H](CC(C)C)C(=O)N2C[C@H](O)CC2C(=O)N[C@H](Cc2c[nH]c3ccccc23)C(=O)N[C@@H](CO)C(=O)N[C@@H](Cc2c[nH]c3ccccc23)C(=O)N1C (stereo partly drawn) [Example 1220]	4.78 to 72.9 nM	6.76 to 30.3 nM
CC(C)C[C@@H]1NC(=O)[C@@H](Cc2c[nH]cn2)NC(=O)[C@@H]2CCCN2C(=O)[C@@H](CC(N)=O)NC(=O)C(C)N(C)C(=O)[C@H](Cc2ccc(O)cc2)NC(=O)CSC[C@H](C(=O)NCC(N)=O)NC(=O)[C@H](C)NC(=O)[C@@H](CC(=O)O)N(C)C(=O)[C@@H](CCCCN)N(C)C(=O)[C@H](Cc2c[nH]c3ccccc23)NC(=O)[C@H](CO)NC(=O)[C@@H](Cc2c[nH]c3ccccc23)NC(=O)C2C[C@@H](O)CN2C1=O (stereo partly drawn) [Example 1221]	> 74.3 nM	> 30.5 nM
CCCC[C@H]1C(=O)N(C)[C@@H](CCCC)C(=O)N[C@@H](CN)C(=O)N[C@H](C(=O)NCC(N)=O)CSCC(=O)N[C@@H](Cc2ccc(O)cc2)C(=O)N2CCC[C@H]2C(=O)N[C@@H](CC(=O)O)C(=O)N2CCC[C@H]2C(=O)N[C@@H](CN)C(=O)N[C@@H](CC(=O)O)C(=O)N2C[C@H](O)C[C@H]2C(=O)N[C@@H](Cc2c[nH]c3ccccc23)C(=O)N[C@@H](CCN)C(=O)N[C@@H](Cc2csc3ccccc23)C(=O)N1C [Example 1222] ({CH2CO}-YPDP[Dap]D[Hyp]W[Dab][Bta][NMeNle][NMeNle][Dap]CG-NH2; thioether N-14)	> 74.3 nM	6.76 to 30.3 nM
CCCC[C@H]1C(=O)N(C)[C@@H](CCCC)C(=O)N[C@@H](CN)C(=O)N[C@H](C(=O)NCC(N)=O)CSCC(=O)N[C@@H](Cc2ccc(O)cc2)C(=O)N(C)[C@@H](C)C(=O)N[C@@H](CC(=O)O)C(=O)N2CCC[C@H]2C(=O)N[C@@H](CN)C(=O)N[C@@H](CCC(N)=O)C(=O)N2C[C@H](O)C[C@H]2C(=O)N[C@@H](Cc2c[nH]c3ccccc23)C(=O)N[C@@H](CCN)C(=O)N[C@@H](Cc2csc3ccccc23)C(=O)N1C [Example 1223] ({CH2CO}-Y[NMeA]DP[Dap]Q[Hyp]W[Dab][Bta][NMeNle][NMeNle][Dap]CG-NH2; thioether N-14)	0.158 to 4.71 nM	0.385 to 6.74 nM
CCCC[C@H]1C(=O)N(C)[C@@H](CCCC)C(=O)N[C@@H](CN)C(=O)N[C@H](C(=O)NCC(N)=O)CSCC(=O)N[C@@H](Cc2ccc(O)cc2)C(=O)N(C)[C@@H](C)C(=O)N[C@@H](CC(=O)O)C(=O)N2CCC[C@H]2C(=O)N[C@@H](CN)C(=O)N[C@@H](CC(=O)O)C(=O)N2C[C@H](O)C[C@H]2C(=O)N[C@@H](Cc2c[nH]c3ccccc23)C(=O)N[C@@H](CCN)C(=O)N[C@@H](Cc2csc3ccccc23)C(=O)N1C [Example 1224] ({CH2CO}-Y[NMeA]DP[Dap]D[Hyp]W[Dab][Bta][NMeNle][NMeNle][Dap]CG-NH2; thioether N-14)	0.158 to 4.71 nM	0.385 to 6.74 nM
CCCC[C@H]1C(=O)N(C)[C@@H](CCCC)C(=O)N[C@@H](CN)C(=O)N[C@H](C(=O)NCC(N)=O)CSCC(=O)N[C@@H](Cc2ccc(O)cc2)C(=O)N(C)[C@@H](C)C(=O)N[C@@H](CC(N)=O)C(=O)N2CCC[C@H]2C(=O)N[C@@H](CN)C(=O)N[C@@H](CCC(N)=O)C(=O)N2C[C@H](O)C[C@H]2C(=O)N[C@@H](Cc2c[nH]c3ccccc23)C(=O)N[C@@H](CCN)C(=O)N[C@@H](Cc2csc3ccccc23)C(=O)N1C [Example 1225] ({CH2CO}-Y[NMeA]NP[Dap]Q[Hyp]W[Dab][Bta][NMeNle][NMeNle][Dap]CG-NH2; thioether N-14)	0.158 to 4.71 nM	0.385 to 6.74 nM
CCCC[C@H]1C(=O)N(C)[C@@H](CCCC)C(=O)N[C@@H](CN)C(=O)N[C@H](C(=O)NCC(N)=O)CSCC(=O)N[C@@H](Cc2ccc(O)cc2)C(=O)N(C)[C@@H](C)C(=O)N[C@@H](CC(N)=O)C(=O)N2CCC[C@H]2C(=O)N[C@@H](CN)C(=O)N[C@@H](CC(=O)O)C(=O)N2C[C@H](O)C[C@H]2C(=O)N[C@@H](Cc2c[nH]c3ccccc23)C(=O)N[C@@H](CCN)C(=O)N[C@@H](Cc2csc3ccccc23)C(=O)N1C [Example 1226] ({CH2CO}-Y[NMeA]NP[Dap]D[Hyp]W[Dab][Bta][NMeNle][NMeNle][Dap]CG-NH2; thioether N-14)	0.158 to 4.71 nM	0.385 to 6.74 nM
CCCC[C@H]1C(=O)N(C)[C@@H](CCCC)C(=O)N[C@@H](CCCNC(=N)N)C(=O)N[C@H](C(=O)NCC(N)=O)CSCC(=O)N[C@@H](Cc2ccc(O)cc2)C(=O)N2CC[C@H](O)[C@H]2C(=O)N[C@@H](CC(N)=O)C(=O)N2CCC[C@H]2C(=O)N[C@@H](Cc2cnc[nH]2)C(=O)N[C@@H](CC(C)C)C(=O)N2CCC[C@H]2C(=O)N[C@@H](Cc2c[nH]c3ccccc23)C(=O)N[C@@H](CO)C(=O)N[C@@H](Cc2csc3ccccc23)C(=O)N1C [Example 1227] ({CH2CO}-Y[Pro(3S-OH)]NPHLPWS[Bta][NMeNle][NMeNle]RCG-NH2; thioether N-14)	> 74.3 nM	> 30.5 nM
CCCC[C@H]1C(=O)N(C)[C@@H](CCCC)C(=O)N[C@@H](CN)C(=O)N[C@H](C(=O)NCC(N)=O)CSCC(=O)N[C@@H](Cc2ccc(O)cc2)C(=O)N2CCC[C@H]2C(=O)N[C@@H](CC(=O)O)C(=O)N2CCC[C@H]2C(=O)N[C@@H](CN)C(=O)N[C@@H](CCC(N)=O)C(=O)N2C[C@H](O)CC2C(=O)N[C@@H](Cc2c[nH]c3ccccc23)C(=O)N[C@@H](CCN)C(=O)N[C@@H](Cc2csc3ccccc23)C(=O)N1C (stereo partly drawn) [Example 1228] ({CH2CO}-YPDP[Dap]Q[ξPro(4R-OH)]W[Dab][Bta][NMeNle][NMeNle][Dap]CG-NH2; thioether N-14)	4.78 to 72.9 nM	6.76 to 30.3 nM
